Source: patent EP3057950B1, “PHENYL LINKED QUINOLINYL MODULATORS OF ROR-GAMMA-T” (Janssen Pharmaceutica NV, priority 2013, dated 2015)
Where a name gives a salt, the structure may show the parent alone.

Legend:
[1] = target: T1, wild type human RORγt LBD (Homo sapiens, UniProt P51449); assay: RORγt Reporter Assay (GAL4-RORγt LBD luciferase in HEK293T cells); assay type: cell-based; details: HEK293T cells; for IC50: compounds for 24 hours, read-out: RORγt reporter Assay, IC50; for inhibition at 6 µM: HEK-293T, read-out: RORγt reporter Assay, % inhibition @ 6 µM, @ 6 µM
T1 construct: expressed in transfected cells; host or cells: HEK293T
T1 sequence (P51449 269-508 limits assumed): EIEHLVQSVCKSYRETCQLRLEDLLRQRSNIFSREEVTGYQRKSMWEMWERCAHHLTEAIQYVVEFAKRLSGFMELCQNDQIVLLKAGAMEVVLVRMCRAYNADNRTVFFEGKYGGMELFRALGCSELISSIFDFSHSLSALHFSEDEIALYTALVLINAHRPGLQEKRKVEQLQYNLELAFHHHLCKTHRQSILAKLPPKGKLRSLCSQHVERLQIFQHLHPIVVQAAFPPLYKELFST
How it was run: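 HEK293T cells transiently co-transfected with GAL4-DBD–human RORγt LBD (or AF2 mutant) and GAL4-responsive firefly luciferase reporter; renilla luciferase normalised transfection and viability. Compounds applied 24 h in 5% lipid-reduced FCS; firefly/renilla ratio plotted against concentration.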

[2] = tested on: IL-17 production by CD4 T cells; assay: Human Th17 Assay (IL-17 production by CD4 T cells under Th17 differentiation conditions); assay type: cell-based; details: 3 days, IL-17 in supernatant
Method: The human Th17 assay tests the effect of RORγt modulatory compounds on IL-17 production by CD4 T cells under conditions which favor Th17 differentiation. Total CD4^+ T cells were isolated from the peripheral blood mononuclear cells (PBMC) of healthy donors using a CD4^+ T cell isolation kit II, following the manufacturer's instructions (Miltenyi Biotec). […] 50 µL of compound at titrated concentrations in DMSO were added into each well at final DMSO concentration at 0.2%. Cells were incubated for 1 hour, then 50 µL of Th17 cell differentiation medium was added to each well. The final concentrations of antibodies and cytokines (R&D Systems) in differentiation medium were: 3x10^6/mL anti-CD3/CD28 beads (prepared using human T cell activation/expansion kit, Miltenyi Biotec), 10 µg/mL anti-IL4, 10 µg/mL anti-IFNγ, 10 ng/mL […], 10 ng/mL IL23, 50 ng/mL IL6, 3 ng/mL TGFβ and 20 U/mL IL2. Cells were cultured at 37 °C and 5% CO2 for 3 days. Supernatants were collected and the accumulated IL-17 in culture was measured by using MULTI-SPOT® Cytokine Plate following manufacture's instruction (Meso Scale Discovery). The plate was read using Sector Imager 6000, and IL-17 concentration was extrapolated from the standard curve. The IC50s were determined by GraphPad.

[3] = target: T2, wild type human RORγt ligand binding domain (RORγt LBD) (Homo sapiens, UniProt P51449); assay: RORγt ThermoFluor® Assay (thermal shift, binding affinity); details: pH 7.0, estimated from concentration response curves
T2 construct: His-tag (N); TurboTEV protease cleavage site (ENLYFQG) (N); made in house; host or cells: E. coli (pHIS1, modified pET expression vector)
T2 sequence (P51449 269-508 limits assumed): T1 sequence (P51449 269-508 limits assumed)
How it was run: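 Thermal shift assay on 0.065 mg/mL RORγt LBD with 60 µM 1,8-ANS in 100 mM Hepes pH 7.0, 10 mM NaCl, 2.5 mM GSH, 0.002% Tween-20. Heated at 1 °C/min, fluorescence read at 500 nm.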

IC50 [1] [nM]	inhibition at 6 µM [1] [%]	IC50 ([2]; Homo sapiens, CD4+ T, 72 h) [nM]	Kd [3] [nM]	RORγt reporter Assay, % inhibition @ 6 µM [1] [%]	IC50 [2] [nM]	Structure (SMILES)
9.5	98	61	4.4	–	–	COc1nc2ccc(C(O)(c3cncn3C)c3cnnn3C)cc2c(C#N)c1-c1cccc(C(F)(F)F)c1 (single isomer, unassigned) [Example 4b, 6-(Hydroxy(1-methyl-1H-1,2,3-triazol-5-yl)(1-methyl-1H-imidazol-5-yl)methyl)-2-methoxy-3-(3-(trifluoromethyl)phenyl)quinoline-4-carbonitrile]
11	–	–	1.4	98	31	COc1nc2ccc(C(O)(c3cncn3C)c3cnnn3C)cc2c(C#N)c1-c1cccc(C(F)(F)F)c1 (single isomer, unassigned) [Example 4c, 6-(Hydroxy(1-methyl-1H-1,2,3-triazol-5-yl)(1-methyl-1H-imidazol-5-yl)methyl)-2-methoxy-3-(3-(trifluoromethyl)phenyl)quinoline-4-carbonitrile]
240	–	–	5.2	53	79	COc1nc2ccc(C(O)(c3ccc(C(F)(F)F)nc3)c3cncn3C)cc2c(Cl)c1-c1ccc(Cl)s1 (single isomer, unassigned) [Example 14b, [4-Chloro-3-(5-chlorothiophen-2-yl)-2-methoxyquinolin-6-yl](1-methyl-1H-imidazol-5-yl)[6-(trifluoromethyl)pyridin-3-yl]methanol]
510	–	–	140	87	310	COc1nc2ccc(C(O)(c3ccc(C(F)(F)F)nc3)c3cncn3C)cc2c(Cl)c1-c1ccc(Cl)s1 (single isomer, unassigned) [Example 14c, [4-Chloro-3-(5-chlorothiophen-2-yl)-2-methoxyquinolin-6-yl](1-methyl-1H-imidazol-5-yl)[6-(trifluoromethyl)pyridin-3-yl]methanol]
300	–	400	360	94	–	COc1nc2c(C)cc(C(O)(c3ccc(C(F)(F)F)nc3)c3cncn3C)cc2c(C#N)c1-c1ccc(OC(F)(F)F)cc1 (single isomer, unassigned) [Example 19b, 6-(Hydroxy(1-methyl-1H-imidazol-5-yl)(6-(trifluoromethyl)pyridin-3-yl)methyl)-2-methoxy-8-methyl-3-(4-(trifluoromethoxy)phenyl)quinoline-4-carbonitrile]
190	–	180	110	96	–	CC(=O)N1CCC(C(O)(c2ccccc2)c2cc(C)c3nc(C#N)c(-c4ccccc4)c(C#N)c3c2)CC1 (single isomer, unassigned) [Example 21c, 6-((1-Acetylpiperidin-4-yl)(hydroxy)(phenyl)methyl)-8-methyl-3-phenylquinoline-2,4-dicarbonitrile]
230	–	400	150	100	–	Cc1cc(C(O)(c2ccc(Cl)cc2)c2cncn2C)cc2c(C#N)c(-c3ccccc3)c(C#N)nc12 (single isomer, unassigned) [Example 23c, 6-((4-Chlorophenyl)(hydroxy)(1-methyl-1H-imidazol-5-yl)methyl)-8-methyl-3-phenylquinoline-2,4-dicarbonitrile]
160	–	160	61	95	–	Cc1cc(C(O)(c2ccc(C(F)(F)F)nc2)c2cncn2C)cc2c(C#N)c(-c3ccccc3)c(C#N)nc12 (single isomer, unassigned) [Example 25c, 6-(Hydroxy(1-methyl-1H-imidazol-5-yl)(6-(trifluoromethyl)pyridin-3-yl)methyl)-8-methyl-3-phenylquinoline-2,4-dicarbonitrile]
130	–	290	77	99	–	COc1c(-c2ccccc2)c(C(F)(F)F)nc2ccc(C(O)(c3ccc(Cl)cc3)c3cncn3C)cc12 (single isomer, unassigned) [Example 33c, (4-Chlorophenyl)(4-methoxy-3-phenyl-2-(trifluoromethyl)quinolin-6-yl)(1-methyl-1H-imidazol-5-yl)methanol]
270	–	260	100	96	–	CC(=O)N1CCC(C(O)(c2ccc3nc(C(F)(F)F)c(-c4ccccc4)c(Cl)c3c2)c2cncn2C)CC1 (single isomer, unassigned) [Example 34c, 1-(4-((4-Chloro-3-phenyl-2-(trifluoromethyl)quinolin-6-yl)(hydroxy)(1-methyl-1H-imidazol-5-yl)methyl)piperidin-1-yl)ethanone]
8.6	102	–	1.4	–	7	COc1nc2ccc(C(O)(c3cnnn3C)c3cnc(C)n3C)cc2c(Cl)c1-c1ccccc1 (single isomer, unassigned) [Example 41b, (4-Chloro-2-methoxy-3-phenylquinolin-6-yl)(1,2-dimethyl-1H-imidazol-5-yl)(1-methyl-1H-1,2,3-triazol-5-yl)methanol]
270	–	–	6.5	102	210	COc1nc2ccc(C(O)(c3cnnn3C)c3cnc(C)n3C)cc2c(Cl)c1-c1ccccc1 (single isomer, unassigned) [Example 41c, (4-Chloro-2-methoxy-3-phenylquinolin-6-yl)(1,2-dimethyl-1H-imidazol-5-yl)(1-methyl-1H-1,2,3-triazol-5-yl)methanol]
25	–	54	1.9	100	–	Cc1nc(C)c(C(O)(c2ccc3nc(C#N)c(-c4ccccc4)c(C#N)c3c2)c2cnnn2C)s1 (single isomer, unassigned) [Example 47c, 6-((2,4-Dimethylthiazol-5-yl)(hydroxy)(1-methyl-1H-1,2,3-triazol-5-yl)methyl)-3-phenylquinoline-2,4-dicarbonitrile]
320	89	1500	200	–	–	COc1nc2ccc(C(O)(c3ccc(C(F)(F)F)nc3)c3cncn3C)cc2c(Cl)c1-c1cncnc1 (centres unmarked) [Example 10, (4-Chloro-2-methoxy-3-pyrimidin-5-ylquinolin-6-yl)(1-methyl-1H-imidazol-5-yl)[6-(trifluoromethyl)pyridin-3-yl]methanol•TFA]
200	86	81	27	–	–	COc1nc2ccc(C(O)(c3ccc(C(F)(F)F)nc3)c3cncn3C)cc2c(Cl)c1-c1ccc(C#N)cc1 (centres unmarked) [Example 16, 4-(4-Chloro-6-{hydroxy(1-methyl-1H-imidazol-5-yl)[6-(trifluoromethyl)pyridin-3-yl]methyl}-2-methoxyquinolin-3-yl)benzonitrile•TFA]
130	105	480	450	–	–	Cn1cncc1C(O)(c1ccc2nc(C(F)(F)F)c(-c3ccccc3)c(Cl)c2c1)c1ccccn1 (centres unmarked) [Example 61, (4-Chloro-3-phenyl-2-(trifluoromethyl)quinolin-6-yl)(1-methyl-1H-imidazol-5-yl)(pyridin-2-yl)methanol•TFA]
700	80	~6000	20000	–	–	OC(c1ccccc1)(c1ccncc1)c1ccc2nc(Cl)c(-c3ccccc3Cl)c(Cl)c2c1 (centres unmarked) [Example 73, (2,4-Dichloro-3-(2-chlorophenyl)quinolin-6-yl)(phenyl)(pyridin-4-yl)methanol]
